Data: the supplement of paper PMC4858399
Counter-ions that a name gives are not always drawn.

Tests used:
[1] = tested on: Caenorhabditis elegans N2; assay: lowest effective concentration for larval growth inhibition (size below effect threshold); higher = less potent; conditions: exposure time 48 h
Summary of the method: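 C. elegans N2 L1 larvae (50 per 96-well) were grown 48 h at 20°C in K-medium with killed bacteria, 1% DMSO and 0.5, 1, 5, 10, 50, 100 or 200 µM chemical. The Biosort measured per-worm extinction as size, and these were log-transformed into well means. The lowest effective concentration is the first dose where the plate-adjusted mean size drops under the 5.665 threshold and stays under it at higher doses.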

[2] = tested on: Caenorhabditis elegans N2; assay: mean nematode size ln(EXT) after 48 h, plate-adjusted (DMSO control set to 6) (ln(EXT), control-adjusted); higher = larger nematodes / less growth inhibition; conditions: exposure time 48 h
Summary of the method: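 Synchronised C. elegans N2 L1 larvae were grown for 48 h at 20°C in K-medium containing killed OP50, 1% DMSO and 0.5–200 µM chemical, at 50 per well and 4–6 wells per treatment. The Biosort recorded extinction for each worm, and a growth model removed debris. Worm size was obtained by natural-logging these values and averaging them per well. For plate adjustment, the vehicle control mean was subtracted and 6 was added.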

Row | Structure (SMILES) | lowest effective concentration [1] [µM] | mean nematode size ln(EXT) (ln) ([2]; 0.5 µM) | mean nematode size ln(EXT) (ln) ([2]; 1 µM) | mean nematode size ln(EXT) (ln) ([2]; 5 µM) | mean nematode size ln(EXT) (ln) ([2]; 10 µM) | mean nematode size ln(EXT) (ln) ([2]; 50 µM) | mean nematode size ln(EXT) (ln) ([2]; 100 µM) | mean nematode size ln(EXT) (ln) ([2]; 200 µM)
1 | CCOC(=O)CCC(=O)OCC [Butanedioic acid, diethyl ester] | > 200 | 5.83 | 5.91 | 5.87 | 5.89 | 5.9 | 5.98 | 5.75
2 | OCCN(CCO)CCO [Triethanolamine] | > 200 | 5.65 | 5.64 | 5.71 | 5.66 | 5.09 | 5.38 | 5.69
3 | Cc1ccccc1O [2-Methylphenol] | > 200 | 5.98 | 5.9 | 5.94 | 5.82 | 5.92 | 5.94 | 5.81
4 | C#CCN1C(=O)COc2cc(F)c(N3C(=O)C4=C(CCCC4)C3=O)cc21 [Flumioxazin] | > 200 | 5.98 | 5.91 | 5.92 | 5.99 | 5.98 | 5.87 | 6
5 | COC(=O)c1ccc(I)cc1S(=O)(=O)NC(=O)Nc1nc(C)nc(OC)n1 [Iodosulfuron-methyl-sodium] | > 200 | 6.1 | 6.11 | 5.88 | 6.04 | 6.15 | 6.07 | 5.89
6 | O=c1n(Cl)c(=O)n(Cl)c(=O)n1Cl [Symclosene] | > 200 | 5.9 | 5.76 | 5.62 | 5.82 | 5.73 | 5.69 | 5.74
7 | CC(C)CC(C)O (stereo not drawn) [4-Methyl-2-pentanol] | > 200 | 6.05 | 5.96 | 6.02 | 5.89 | 5.97 | 5.96 | 5.79
8 | Cc1cccc2ccccc12 [1-Methylnaphthalene] | > 200 | 6.08 | 6.13 | 5.94 | 6.03 | 5.99 | 6.02 | 6.02
9 | CC(C)(O)c1ccc(CNC(=O)c2cccnc2Oc2ccc(F)cc2)cc1 | > 200 | 5.74 | 6.01 | 5.84 | 5.9 | 5.91 | 5.9 | 5.72
10 | CN(C)C(=O)Nc1cccc(C(F)(F)F)c1 [Fluometuron] | > 200 | 6.02 | 6.11 | 6.08 | 6.02 | 5.87 | 6.07 | 5.78
11 | OB(O)O [Boric acid] | > 200 | 6.06 | 6.07 | 6.08 | 6.13 | 6.14 | 6.18 | 5.95
12 | CC(=O)Oc1ccccc1C(=O)O [Aspirin] | > 200 | 5.74 | 5.85 | 5.81 | 6.1 | 5.89 | 5.89 | 5.71
13 | C[C@@H](Oc1ccc(CNC(=O)c2cccnc2Oc2ccc3c(c2)OCO3)c(F)c1)C(=O)O | > 200 | 5.79 | 5.84 | 5.86 | 5.84 | 5.92 | 5.86 | 5.72
14 | CCc1ccc(CCOc2ccc(CC3SC(=O)NC3=O)cc2)nc1 (stereo not drawn) [Pioglitazone HCl] | > 200 | 5.98 | 5.94 | 5.95 | 5.96 | 5.91 | 5.87 | 5.76
15 | Cc1ccc(N)cc1 [4-Methyl-benzeneamine] | > 200 | 5.89 | 5.85 | 5.89 | 5.88 | 5.79 | 5.85 | 5.71
16 | COc1ccc(C)cc1N [p-Cresidine] | > 200 | 5.84 | 5.85 | 5.84 | 5.83 | 5.85 | 5.89 | 5.83
17 | OC[C@H]1O[C@@H]2O[C@H]3[C@H](O)[C@@H](O)[C@@H](O[C@H]4[C@H](O)[C@@H](O)[C@@H](O[C@H]5[C@H](O)[C@@H](O)[C@@H](O[C@H]6[C@H](O)[C@@H](O)[C@@H](O[C@H]7[C@H](O)[C@@H](O)[C@@H](O[C@H]1[C@H](O)[C@H]2O)O[C@@H]7CO)O[C@@H]6CO)O[C@@H]5CO)O[C@@H]4CO)O[C@@H]3CO [alpha-Cyclodextrin] | > 200 | 5.83 | 5.83 | 5.77 | 5.87 | 5.88 | 5.82 | 5.74
18 | OCCNCCO [Diethanolamine] | > 200 | 6.04 | 6.05 | 6.04 | 6.02 | 6.1 | 6.07 | 5.79
19 | CC(=O)OCCOCCOCCOC(C)=O [Triethylene Glycol Diacetate] | > 200 | 5.82 | 5.87 | 5.88 | 5.91 | 5.83 | 5.96 | 5.82
20 | CCCCC(CC)C(=O)O (stereo not drawn) [2-Ethylhexanoic acid] | > 200 | 5.7 | 5.88 | 5.79 | 5.81 | 5.76 | 5.7 | 6.12
21 | Cc1ccc([N+](=O)[O-])cc1 [4-Nitrotoluene] | > 200 | 5.99 | 5.92 | 5.98 | 5.85 | 5.94 | 5.95 | 5.77
22 | ClC(Cl)c1ccccc1 [Benzal chloride] | > 200 | 5.81 | 5.83 | 5.86 | 5.78 | 5.85 | 5.89 | 5.68
23 | CCCCCOC(=O)c1ccccc1C(=O)OCCCCC [Dipentyl phthalate] | > 200 | 5.85 | 5.86 | 5.89 | 5.87 | 5.85 | 5.81 | 5.73
24 | CCCCCCC(=O)OCC [Heptanoic acid, ethyl ester] | > 200 | 5.88 | 5.93 | 5.82 | 6.08 | 5.85 | 5.89 | 6.02
25 | Clc1cccc(Cl)c1 [1,3-Dichlorobenzene] | > 200 | 5.9 | 5.89 | 5.87 | 5.96 | 5.99 | 5.99 | 5.79
26 | S=C1NCCN1 [Ethylenethiourea] | > 200 | 6.18 | 5.97 | 6.08 | 6.19 | 6.12 | 6.12 | 5.69

Row | Structure (SMILES) | lowest effective concentration [1] [µM] | mean nematode size ln(EXT) (ln) ([2]; 0.5 µM) | mean nematode size ln(EXT) (ln) ([2]; 1 µM) | mean nematode size ln(EXT) (ln) ([2]; 5 µM) | mean nematode size ln(EXT) (ln) ([2]; 10 µM) | mean nematode size ln(EXT) (ln) ([2]; 50 µM) | mean nematode size ln(EXT) (ln) ([2]; 100 µM) | mean nematode size ln(EXT) (ln) ([2]; 200 µM)
27 | C#C[C@]1(O)CC[C@H]2[C@@H]3CCc4cc(O)ccc4[C@H]3CC[C@@]21C [17alpha-Ethynylestradiol] | > 200 | 6 | 5.96 | 5.9 | 5.91 | 6 | 5.86 | 5.92
28 | NC1CCCCC1 [Cyclohexylamine] | > 200 | 5.84 | 5.95 | 5.82 | 5.85 | 5.98 | 5.83 | 5.86
29 | O=C1NC(=O)C(c2ccccc2)(c2ccccc2)N1 [5,5-Diphenylhydantoin] | > 200 | 5.94 | 5.99 | 5.92 | 5.94 | 5.91 | 5.88 | 5.78
30 | Cn1c(-c2ccccc2)cc(-c2ccccc2)[n+]1C [Difenzoquat metilsulfate] | > 200 | 6.06 | 6.04 | 6.06 | 6.07 | 5.99 | 6.1 | 5.9
31 | CCCCC(CC)COC(=O)CCCCC(=O)OCc1ccccc1 (stereo not drawn) [Benzyloctyl adipate (BOA)] | > 200 | 5.99 | 5.97 | 6.03 | 6.02 | 5.92 | 5.77 | 5.89
32 | O=C(O)c1nc(Cl)ccc1Cl [Clopyralid] | > 200 | 5.75 | 5.75 | 5.75 | 5.87 | 5.93 | 5.89 | 6.08
33 | O=S(=O)(O)C(F)(F)C(F)(F)C(F)(F)C(F)(F)F [Potassium nonafluoro-1-butanesulfonate] | > 200 | 5.49 | 5.58 | 5.55 | 5.7 | 5.7 | 5.65 | 5.81
34 | CCOC(=O)CC(SP(=O)(OC)OC)C(=O)OCC (stereo not drawn) [Malaoxon] | > 200 | 5.9 | 5.85 | 6.21 | 5.99 | 5.89 | 5.94 | 5.83
35 | CCCCCOC(C)=O [Pentyl acetate] | > 200 | 5.91 | 5.91 | 5.94 | 6 | 5.89 | 5.89 | 5.7
36 | C=C(C)C(N)=O [Methacrylamide] | > 200 | 6.05 | 5.91 | 5.89 | 5.82 | 6.01 | 5.82 | 5.86
37 | CCNc1nc(Cl)nc(NCC)n1 [Simazine] | > 200 | 6.2 | 6.08 | 6.12 | 6.13 | 6.17 | 6.19 | 5.77
38 | N#CN [Cyanamide] | > 200 | 5.91 | 5.96 | 6.01 | 6 | 5.96 | 6.01 | 5.92
39 | O=C(O)c1c(Cl)ccc2cc(Cl)cnc12 [Quinclorac] | > 200 | 5.97 | 6.03 | 6.03 | 5.99 | 5.97 | 6.07 | 5.76
40 | CC(=O)OC1CC(C)OC(C)O1 (stereo not drawn) [2,6-Dimethyl-1,3-dioxan-4-ol acetate] | > 200 | 5.93 | 5.93 | 5.88 | 5.95 | 6.12 | 5.75 | 5.84
41 | CN(C)C=O [N,N-Dimethylformamide] | > 200 | 5.86 | 5.92 | 5.88 | 5.84 | 6.01 | 5.79 | 5.78
42 | CCNc1nc(NC(C)C)nc(SC)n1 [Ametryn] | > 200 | 6.09 | 6.82 | 6.12 | 6.27 | 6.45 | 6.38 | 5.72
43 | CCCc1ccccc1 [Propylbenzene] | 50 | 5.75 | 5.64 | 5.71 | 5.69 | 5.38 | 5.53 | 5.61
44 | CC(=O)OC[C@H]1O[C@@](COC(C)=O)(O[C@H]2O[C@H](COC(C)=O)[C@@H](OC(C)=O)[C@H](OC(C)=O)[C@H]2OC(C)=O)[C@@H](OC(C)=O)[C@@H]1OC(C)=O [Sucrose octaacetate] | > 200 | 5.78 | 5.75 | 5.76 | 5.75 | 5.72 | 5.75 | 5.73
45 | COc1cc(-c2nc(NC(=O)c3cc4cc(C)cc(C)c4n3CC(=O)O)sc2CCC2CCCCC2)c(OC)cc1Cl | > 200 | 5.89 | 5.89 | 5.88 | 5.87 | 5.92 | 5.83 | 5.69
46 | C=CCOC(=O)C(C)(C)OC(=O)c1cc(-n2c(=O)cc(C(F)(F)F)n(C)c2=O)ccc1Cl [Butafenacil] | > 200 | 5.9 | 5.89 | 5.87 | 5.88 | 5.84 | 5.92 | 5.94
47 | [As]#[In] [Indium arsenide] | > 200 | 5.78 | 5.76 | 5.77 | 5.75 | 5.54 | 5.53 | 5.86
48 | CCn1nc(Cc2ccccc2)cc1C1CCN(C[C@H]2C[C@H](N(C)[C@@H](C(=O)O)C(C)C)C[C@@H]2c2cccc(F)c2)CC1 | > 200 | 5.93 | 5.9 | 5.91 | 5.93 | 5.92 | 5.83 | 5.73
49 | CCC(C)n1c(=O)[nH]c(C)c(Br)c1=O (stereo not drawn) [Bromacil] | > 200 | 6.06 | 6.23 | 6.18 | 6.3 | 6.1 | 6.23 | 5.81
50 | CC(C)C1(C)N=C(c2ncccc2C(=O)O)NC1=O (stereo not drawn) [Imazapyr] | > 200 | 5.84 | 5.98 | 6.01 | 5.97 | 5.9 | 5.84 | 5.77
51 | COCc1nnc(-c2ccc[n+]([O-])c2)n1-c1c(Cl)c(Cl)cc2[nH]c(=O)c(=O)[nH]c12 | > 200 | 5.89 | 6.15 | 6.22 | 6.24 | 6.17 | 6.08 | 5.67
